Laboratory results published in patent US20210290788A1, “RADIOIMMUNOCONJUGATES AND DNA DAMAGE AND REPAIR INHIBITOR COMBINATION THERAPY” (Fusion Pharmaceuticals Inc., priority 2018, published 2021).

Legend:
[1] = system: A549 (NSCLC) xenograft model; test: Example 3 in vivo efficacy of olaparib as single agent, A549 xenograft
Method: (§1) An in vivo efficacy study was conducted with olaparib alone as a single agent. Olaparib was given as a single agent at different doses in a Colo-205 (colorectal cancer) xenograft model and in an A549 (NSCLC) xenograft model. Groups of animals (n=5) were dosed with olaparib (i.p.) 5 days on, 2 days off using 10-100 mg/kg doses.

[2] = system: Colo-205 (colorectal cancer) xenograft model; test: Example 3 in vivo efficacy of olaparib as single agent, Colo-205 xenograft
Method: as §1

[3] = system: y-H2AX foci; test: Example 3 immunohistochemical analysis of y-H2AX foci; type: in vivo; conditions: after olaparib treatment; Colo-205 and A549 xenograft study
Method: as §1

[4] = system: Colo-205 (colorectal cancer) xenograft model; test: Example 5 in vivo synergy study, olaparib dosing schedule 2, Colo-205 xenograft; conditions: FPI-1434 50 nCi, olaparib 50 mg/kg i.p. 5 days on, 2 days off for 28 days, first dose 24 hours after FPI-1434, up to 28 days
Method: Combination groups (n=5) were dosed with olaparib (i.p.) 5 days on, 2 days off, using a 50 mg/kg dose for 28 days. The first dose of olaparib was administered 24 hours following FPI-1434 administration.
(§2) Relative tumor volume was evaluated up to 28 days after administration.

[5] = system: Colo-205 (colorectal cancer) xenograft model; test: Example 4 in vivo synergy study, olaparib dosing schedule 1, Colo-205 xenograft; conditions: [225Ac]-FPI-1434 50 nCi, olaparib 50 mg/kg i.p. 5 days on, 2 days off for 28 days, pre-dosed 3 times prior to FPI-1434, up to 28 days
Method: (§3) Combination groups (n=5) were dosed with olaparib (i.p.) 5 days on, 2 days off, using a 50 mg/kg dose for 28 days. Animals were pre-dosed with olaparib 3 times prior to the [^225Ac]-FPI-1434 administration.
as §2

[6] = system: A549 (NSCLC) xenograft model; test: Example 4 in vivo synergy study, olaparib dosing schedule 1, A549 xenograft; conditions: [225Ac]-FPI-1434 200 nCi, olaparib 50 mg/kg i.p. 5 days on, 2 days off for 28 days, pre-dosed 3 times prior to FPI-1434, up to 28 days
Method: as §3

[7] = system: Colo-205 (colorectal cancer) xenograft model; test: Example 6 in vivo combination study at multiple dose levels, Colo-205 xenograft; conditions: lower effective doses: [225Ac]-FPI-1434 20 nCi, olaparib 25 mg/kg i.p. 5 days on, 2 days off from 24 hours after FPI-1434 until day 30
Method: An in vivo study was conducted with [^225Ac]-FPI-1434 and olaparib in a Colo-205 (colorectal cancer) xenograft model, with [^225Ac]-FPI-1434 administered at a dose of 20 nCi, 50 nCi, or 100 nCi. In combination groups (n=5), animals were dosed with olaparib (i.p.) starting at 24 hours after [^225Ac]-FPI-1434 administration according to a 5 days on, 2 days off schedule using 25 or 50 mg/kg doses until day 30 after [^225Ac]-FPI-1434 administration (“day 0”).
Relative tumor volume was evaluated at various time points after administration. […] FIG. 13A-13C show results using 20 nCi (FIG. 13A), 50 nCi (FIG. 13B), or 100 nCi (FIG. 13C) [^225Ac]-FPI-1434 with olaparib (25 mg/kg or 50 mg/kg).

[8] = olaparib i.p. 5 days on, 2 days off, 10-100 mg/kg

## O=C(c1cc(Cc2n[nH]c(=O)c3ccccc23)ccc1F)N1CCN(C(=O)C2CC2)CC1 [olaparib]
[1]; olaparib 10-100 mg/kg doses
  Dose response of tumor volume effect: did not appear to be a dose response
[1]; [8]
  Relative tumor volume (efficacy as a single agent): modest efficacy as a single agent
[2]; olaparib 10-100 mg/kg doses
  Dose response of tumor volume effect: did not appear to be a dose response
[2]; [8]
  Relative tumor volume (efficacy as a single agent): modest efficacy as a single agent
[3]
  DSB formation (y-H2AX foci, immunohistochemical analysis): no increase in DSB formation
[4]
  Relative tumor volume: significant reduction in tumor volume overtime
[5]
  Relative tumor volume: some reduction in tumor volume over time
[6]
  Relative tumor volume: no apparent difference in tumor volume over time
[7]
  Relative tumor volume: no or limited therapeutic effect
